Measurements as given in patent US10017504B2, “Piperidine isoxazole and isothiazole orexin receptor antagonists” (MERCK SHARP & DOHME CORP., priority 2014, dated 2018).

Target: human orexin-2 receptor (Homo sapiens (Human), UniProt O43614)
Experiment: FLIPR Ca2+ Flux Assay, orexin-2 receptor
Format: cell-based
Conditions: CHO cells expressing the human orexin-2 receptor; agonist 70 pM Ala-6,12 human orexin-A; read-out: hOX2 FLIPR IC50
Description: In a typical experiment the OX1 and OX2 receptor antagonistic activity of the compounds of the present invention was determined in accordance with the following experimental method. For intracellular calcium measurements, Chinese hamster ovary (CHO) cells expressing the rat orexin-1 receptor or the human orexin-2 receptor, are grown in Iscove's modified DMEM containing 2 mM L-glutamine, […], 1% hypoxanthine-thymidine supplement, 100 U/ml penicillin, 100 μg/ml streptomycin and 10% heat-inactivated fetal calf serum (FCS). The cells are seeded at 20,000 cells/well into Becton-Dickinson black 384-well clear bottom sterile plates coated with poly-D-lysine. All reagents are from GIBCO-Invitrogen Corp. The seeded plates are incubated overnight at 37° C. and 5% CO2. Ala-6,12 human orexin-A as the agonist is prepared as a 1 mM stock solution in 1% bovine serum albumin (BSA) and diluted in assay buffer (HBSS containing 20 mM HEPES, 0.1% BSA and 2.5 mM probenecid, pH7.4) for use in the assay at a final concentration of 70 pM. Test compounds are prepared as 10 mM stock solution in DMSO, then diluted in 384-well plates, first in DMSO, then assay buffer. On the day of the assay, cells are washed 3 times with 100 μl assay buffer and then incubated for 60 min (37° C., 5% CO2) in 60 μl assay buffer containing 1 μM Fluo-4AM ester, 0.02% pluronic acid, and 1% BSA. The dye loading solution is then aspirated and cells are washed 3 times with 100 μl assay buffer. 30 μl of that same buffer is left in each well. Within the Fluorescent Imaging Plate Reader (FLIPR, Molecular Devices), test compounds are added to the plate in a volume of 25 μl, incubated for 5 min and finally 25 μl of agonist is added. Fluorescence is measured for each well at 1 second intervals for 5 minutes and the height of each fluorescence peak is compared to the height of the fluorescence peak induced by 70 pM Ala-6,12 orexin-A with buffer in place of antagonist. […] The intrinsic orexin receptor antagonist activity of a compound which may be used in the present invention may be determined by these assays.

human orexin-2 receptor, sequence (O43614 whole entry): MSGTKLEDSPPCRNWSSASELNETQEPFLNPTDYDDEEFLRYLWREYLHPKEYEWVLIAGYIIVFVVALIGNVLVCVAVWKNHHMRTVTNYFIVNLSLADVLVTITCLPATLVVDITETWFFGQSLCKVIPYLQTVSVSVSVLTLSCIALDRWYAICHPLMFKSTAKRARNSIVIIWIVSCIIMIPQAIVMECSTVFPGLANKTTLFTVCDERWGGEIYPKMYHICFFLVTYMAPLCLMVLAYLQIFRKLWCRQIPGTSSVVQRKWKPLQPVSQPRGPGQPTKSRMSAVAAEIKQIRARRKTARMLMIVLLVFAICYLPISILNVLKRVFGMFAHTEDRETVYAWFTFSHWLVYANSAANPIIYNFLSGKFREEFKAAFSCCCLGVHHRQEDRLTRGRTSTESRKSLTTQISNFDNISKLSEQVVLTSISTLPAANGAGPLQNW

Question: For `C[C@@H]1CC[C@@H](c2cc(C(C)(C)O)no2)CN1C(=O)c1ccccc1-n1ncnn1` [Example 32, 2-{5-[(3R,6R)-6-Methyl-1-{[2-(2H-tetrazol-2-yl)phenyl]carbonyl}piperidin-3-yl]isoxazol-3-yl}propan-2-ol], which IC50 is on record?
Answer: 124 nM

Question: How did the IC50 turn out when `C[C@@H]1CC[C@@H](c2cc(C(C)(C)O)no2)CN1C(=O)c1ccccc1-n1nccn1` [Example 20, 2-{5-[(3R,6R)-6-Methyl-1-{[2-(2H-1,2,3-triazol-2-yl)phenyl]carbonyl}piperidin-3-yl]isoxazol-3-yl}propan-2-ol] was run?
Answer: 30.3 nM

Question: `C[C@@H]1CC[C@@H](c2cc([C@@H](O)C(F)(F)F)no2)CN1C(=O)c1ccccc1C1(C#N)CC1` [Example 44, 1-(2-{[(2R,5R)-2-Methyl-5-{3-[(1R)-2,2,2-Trifluoro-1-hydroxyethyl]isoxazol-5-yl}piperidin-1-yl]carbonyl}phenyl)cyclopropanecarbonitrile] was tested. Which IC50 did it give?
Answer: 26.8 nM

Question: How did the IC50 turn out when `C[C@@H]1CC[C@@H](c2cc(C(C)(C)O)no2)CN1C(=O)c1ccccc1OCC(F)F` [Example 35, 2-{5-[(3R,6R)-1-{[2-(2,2-Difluoroethoxy)phenyl]carbonyl}-6-methylpiperidin-3-yl]isoxazol-3-yl}propan-2-ol] was run?
Answer: 140 nM

Question: How did the IC50 turn out when `CC(C)C(C)(O)c1cc([C@@H]2CC[C@@H](C)N(C(=O)c3ccccc3-n3nccn3)C2)no1` (single isomer, unassigned) [Example 17] was run?
Answer: 24.5 nM

Question: `C[C@@H]1CC[C@@H](c2cc(C(C)(C)O)sn2)CN1C(=O)c1ccccc1OC(F)(F)F` [Example 68, 2-{3-[(3R,6R)-6-Methyl-1-{[2-(trifluoromethoxy)phenyl]carbonyl}piperidin-3-yl]isothiazol-5-yl}propan-2-ol] was tested. Which IC50 did it give?
Answer: 22.8 nM

Question: For `C[C@@H]1CC[C@@H](c2cc([C@H](O)C(F)(F)F)no2)CN1C(=O)c1ccsc1-n1nccn1` [Example 43, (1S)-2,2,2-trifluoro-1-{5-[(3R,6R)-6-methyl-1-{[2-(2H-1,2,3-triazol-2-yl)thiophen-3-yl]carbonyl}piperidin-3-yl]isoxazol-3-yl}ethanol], which IC50 is on record?
Answer: 162 nM

Question: For `C[C@@H]1CC[C@@H](c2cc([C@H](O)C(F)(F)F)no2)CN1C(=O)c1ccccc1-c1ncccn1` [Example 51, (1S)-2,2,2-trifluoro-1-(5-{(3R,6R)-6-methyl-1-[(2-pyrimidin-2-ylphenyl)carbonyl]piperidin-3-yl}isoxazol-3-yl)ethanol], which IC50 is on record?
Answer: 146 nM
